ChEMBL document CHEMBL2203174, “SAR Development of Lysine-Based Irreversible Inhibitors of Transglutaminase 2 for Huntington's Disease” (ACS Med Chem Lett, 2012)
Peptide text beside a SMILES is read from it. * marks the point of attachment. Cbz = O=C(OCc1ccccc1)*; Acryloyl = C=CC(=O)*; OtBu = CC(C)(C)O*

Key:
[1] = target: T1, Protein-glutamine gamma-glutamyltransferase E (Homo sapiens, UniProt Q08188); assay: Inhibition of transglutaminase 3
T1 sequence (Q08188 whole entry): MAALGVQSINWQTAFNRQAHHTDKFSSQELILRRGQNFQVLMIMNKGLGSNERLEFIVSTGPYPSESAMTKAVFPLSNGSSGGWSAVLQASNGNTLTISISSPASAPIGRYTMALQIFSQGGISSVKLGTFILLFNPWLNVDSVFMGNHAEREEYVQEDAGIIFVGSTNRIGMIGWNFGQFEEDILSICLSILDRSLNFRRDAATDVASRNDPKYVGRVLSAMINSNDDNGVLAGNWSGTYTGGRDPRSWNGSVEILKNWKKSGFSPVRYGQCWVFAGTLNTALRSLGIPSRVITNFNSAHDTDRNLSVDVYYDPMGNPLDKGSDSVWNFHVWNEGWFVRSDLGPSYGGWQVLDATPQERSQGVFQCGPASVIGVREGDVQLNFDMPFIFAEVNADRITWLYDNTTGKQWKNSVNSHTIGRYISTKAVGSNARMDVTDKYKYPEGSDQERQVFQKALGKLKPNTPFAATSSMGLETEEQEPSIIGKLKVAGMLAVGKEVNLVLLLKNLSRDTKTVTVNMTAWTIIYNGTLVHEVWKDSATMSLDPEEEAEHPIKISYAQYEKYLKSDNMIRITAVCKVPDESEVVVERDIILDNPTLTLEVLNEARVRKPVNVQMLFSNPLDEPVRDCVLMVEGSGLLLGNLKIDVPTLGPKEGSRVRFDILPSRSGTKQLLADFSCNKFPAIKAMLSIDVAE

[2] = target: T2, Protein-glutamine gamma-glutamyltransferase K (Homo sapiens, UniProt P22735); assay: Inhibition of transglutaminase 1
T2 sequence (P22735 whole entry): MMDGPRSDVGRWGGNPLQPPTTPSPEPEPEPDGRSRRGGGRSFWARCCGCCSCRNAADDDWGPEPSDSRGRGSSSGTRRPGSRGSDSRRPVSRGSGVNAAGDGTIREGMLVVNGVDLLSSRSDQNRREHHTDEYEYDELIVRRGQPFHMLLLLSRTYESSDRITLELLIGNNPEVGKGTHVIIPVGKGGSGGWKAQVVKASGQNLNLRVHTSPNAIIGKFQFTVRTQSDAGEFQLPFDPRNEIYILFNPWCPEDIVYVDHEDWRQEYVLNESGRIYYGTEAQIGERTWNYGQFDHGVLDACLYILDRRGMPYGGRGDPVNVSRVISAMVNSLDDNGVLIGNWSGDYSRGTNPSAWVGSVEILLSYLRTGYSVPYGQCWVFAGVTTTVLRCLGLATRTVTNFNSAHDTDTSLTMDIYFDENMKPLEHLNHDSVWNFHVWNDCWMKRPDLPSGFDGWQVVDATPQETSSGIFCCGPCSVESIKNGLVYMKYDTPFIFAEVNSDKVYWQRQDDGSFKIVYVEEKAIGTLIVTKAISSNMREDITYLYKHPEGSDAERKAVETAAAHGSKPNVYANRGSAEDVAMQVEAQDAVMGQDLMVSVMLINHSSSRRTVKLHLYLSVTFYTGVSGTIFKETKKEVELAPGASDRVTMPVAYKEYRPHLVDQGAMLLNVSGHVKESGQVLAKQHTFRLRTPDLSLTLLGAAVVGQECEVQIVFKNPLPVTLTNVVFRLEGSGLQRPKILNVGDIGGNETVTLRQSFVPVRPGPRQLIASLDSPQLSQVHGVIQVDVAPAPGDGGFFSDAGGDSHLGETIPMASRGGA

[3] = target: T3, Protein-glutamine gamma-glutamyltransferase 6 (Homo sapiens, UniProt O95932); assay: Inhibition of transglutaminase 6
T3 sequence (O95932 whole entry): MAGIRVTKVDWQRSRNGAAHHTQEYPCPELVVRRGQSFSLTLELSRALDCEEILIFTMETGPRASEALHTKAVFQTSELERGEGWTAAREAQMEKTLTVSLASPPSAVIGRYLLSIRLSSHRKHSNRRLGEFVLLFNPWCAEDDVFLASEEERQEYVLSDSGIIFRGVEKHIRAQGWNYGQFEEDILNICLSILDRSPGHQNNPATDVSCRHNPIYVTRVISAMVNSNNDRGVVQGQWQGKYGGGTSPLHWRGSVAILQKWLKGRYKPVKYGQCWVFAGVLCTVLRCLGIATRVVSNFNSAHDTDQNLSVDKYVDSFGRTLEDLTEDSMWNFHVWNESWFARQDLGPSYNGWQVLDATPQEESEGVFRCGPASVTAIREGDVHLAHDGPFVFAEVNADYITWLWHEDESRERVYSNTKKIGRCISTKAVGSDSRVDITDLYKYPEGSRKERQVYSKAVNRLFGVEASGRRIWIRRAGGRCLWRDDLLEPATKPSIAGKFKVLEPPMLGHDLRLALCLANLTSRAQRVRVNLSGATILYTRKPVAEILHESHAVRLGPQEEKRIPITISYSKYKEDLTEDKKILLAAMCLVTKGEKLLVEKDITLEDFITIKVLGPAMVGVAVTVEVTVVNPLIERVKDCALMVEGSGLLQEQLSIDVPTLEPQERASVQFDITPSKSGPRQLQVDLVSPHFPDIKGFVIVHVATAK

[4] = target: T4, Coagulation factor XIII A chain (Homo sapiens, UniProt P00488); assay: Inhibition of coagulation factor 13a
T4 sequence (P00488 whole entry): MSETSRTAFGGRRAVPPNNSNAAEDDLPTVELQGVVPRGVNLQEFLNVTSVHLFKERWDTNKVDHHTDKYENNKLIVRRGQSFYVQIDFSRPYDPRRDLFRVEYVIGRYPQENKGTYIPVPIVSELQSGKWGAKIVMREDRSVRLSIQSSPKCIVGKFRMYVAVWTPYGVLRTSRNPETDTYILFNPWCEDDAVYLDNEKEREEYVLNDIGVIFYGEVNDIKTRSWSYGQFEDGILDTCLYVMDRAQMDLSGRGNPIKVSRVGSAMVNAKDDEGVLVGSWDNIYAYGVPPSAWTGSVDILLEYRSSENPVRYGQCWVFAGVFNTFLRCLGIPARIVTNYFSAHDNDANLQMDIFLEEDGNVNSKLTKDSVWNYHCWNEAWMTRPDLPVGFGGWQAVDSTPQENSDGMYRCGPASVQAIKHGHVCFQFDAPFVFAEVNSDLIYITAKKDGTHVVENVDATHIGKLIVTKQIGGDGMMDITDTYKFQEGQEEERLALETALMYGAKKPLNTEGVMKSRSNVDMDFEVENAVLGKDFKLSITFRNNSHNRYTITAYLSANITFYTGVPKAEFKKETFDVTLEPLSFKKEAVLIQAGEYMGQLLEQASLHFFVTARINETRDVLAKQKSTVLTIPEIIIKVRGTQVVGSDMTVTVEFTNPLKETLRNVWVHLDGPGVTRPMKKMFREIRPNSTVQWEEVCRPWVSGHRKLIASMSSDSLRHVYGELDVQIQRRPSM

SMILES	IC50 [1] [µM]	IC50 [2] [µM]	IC50 [3] [µM]	IC50 [4] [µM]
C=CC(=O)NCCCC[C@H](NC(=O)OCc1ccccc1)C(=O)N1CCN(c2ccccc2Cl)CC1	> 80	12.9	69	67
C=CC(=O)NCCCC[C@H](NC(=O)OCc1ccccc1)C(=O)NCC(=O)OC(C)(C)C (Cbz-Lys(Acryloyl)-Gly-OtBu)	> 80	> 80	> 80	> 80
C=CC(=O)NCCCC[C@H](NC(=O)Cc1ccccc1)C(=O)N1CCN(c2cccc(C)n2)CC1	> 80	15	> 80	35
